In ChEMBL document CHEMBL5126544, “Recent results from non-basic glycosidase inhibitors: How structural diversity can inform general strategies for improving inhibition potency” (Eur J Med Chem, 2022):
One block for each compound: values may come before it.

Legend:
[1] = Inhibition of saccharomyces cerevisiae alpha-glucosidase using p-nitrophenyl-alpha-D-glucopyranoside as substrate preincubated for 15 mins followed by substrate addition and measured after 20 mins by spectrophotometric analysis
[2] = species on record: Homo sapiens; assay: Potency index, ratio of acarbose IC50 to test compound IC50 for inhibition of alpha-glucosidase (unknown origin) using PNP glycoside as substrate preincubated for 30 mins followed by substrate addition and measured after 60 mins by spectrophotometric analysis; conditions: time 90.0 min
[3] = Inhibition of alpha-glucosidase (unknown origin) using PNP glycoside as substrate preincubated for 30 mins followed by substrate addition and measured after 60 mins by spectrophotometric analysis
[4] = Inhibition of Bacillus stearothermophilus alpha-glucosidase type IV using p-nitrophenyl-alpha-D-glucopyranoside as substrate preincubated for 15 mins followed by substrate addition and measured after 35 mins by microtiter plate reader analysis; set-up: species or system Geobacillus stearothermophilus
[5] = Inhibition of alpha-amyloglucosidase (unknown origin) assessed as reduction in conversion of starch to glucose using starch as substrate preincubated with substrate for 20 mins followed by enzyme addition and measured after 30 mins
[6] = test system: Saccharomyces cerevisiae; assay: Inhibition of baker's yeast alpha-glucosidase at 1 uM using p-nitrophenyl-alpha-D-glucopyranoside as substrate preincubated for 30 mins followed by substrate addition and measured after 5 mins relative to control; conditions: time 35.0 min
[7] = Inhibition of baker's yeast alpha-glucosidase using PNPG as substrate preincubated for 10 mins followed by substrate addition and measured after 30 mins by microplate reader analysis; set-up: species or system Saccharomyces cerevisiae
[8] = Inhibition of Bacillus stearothermophilus alpha-glucosidase using PNP-G as substrate incubated for 20 mins; set-up: species or system Geobacillus stearothermophilus
[9] = Inhibition of saccharomyces cerevisiae alpha-glucosidase using PNP-G as substrate incubated for 20 mins
[10] = Inhibition of alpha-glucosidase (unknown origin) using p-nitrophenyl-alpha-D-glucopyranoside as substrate preincubated for 10 mins followed by substrate addition and measured after 30 mins
[11] = Inhibition of beta glucosidase (unknown origin); set-up: species or system Homo sapiens
[12] = Inhibition of baker's yeast alpha-glucosidase using p-nitrophenyl-alpha-glucopyranoside as substrate by spectrophotometric analysis; set-up: species or system Saccharomyces cerevisiae
[13] = Inhibition of baker's yeast alpha-glucosidase using PNP-G as substrate preincubated for 10 mins followed by substrate addition and measured after 20 mins; set-up: species or system Saccharomyces cerevisiae
[14] = Inhibition of saccharomyces cerevisiae alpha-glucosidase using pNPG as substrate preincubated for 15 mins followed by substrate addition
[15] = Inhibition of yeast alpha-glucosidase; set-up: species or system Saccharomyces cerevisiae
[16] = test system: Rattus norvegicus; assay: Hypoglycemic activity in Wistar rat assessed as reduction in postprandial blood glucose level at 10 mg/kg, po administered for 10 mins followed by sucrose challenge and measured after 30 mins post oral sucrose challenge; type: functional; set-up: scale not given: the % may be the effect or the level left; conditions: time 40 min
[17] = Inhibition of rat intestinal sucrase using sucrose as substrate incubated for 15 mins by spectometric analysis
[18] = Inhibition of rat intestinal maltase using maltose as substrate incubated for 15 mins by spectometric analysis
[19] = Inhibition of human alpha-fucosidase

IC50 [1]: 10 µM
Compound: NNC(=O)Cn1c(Cc2ccc(Cl)cc2Cl)nc2ccc([N+](=O)[O-])cc21

Ratio IC50 [2]: 5 | IC50 [3]: 8 µM
Compound: Oc1ccc(-c2nc3ccc(Br)cc3[nH]2)cc1

IC50 [4]: 24 µM
Compound: Oc1ccc(/C=C/c2cc(O)cc(O)c2)cc1 [RESVERATROL]

IC50 [5]: 15 µM | inhibition [6]: 56.5% | IC50 [3]: 38 µM
Compound: C[C@H]1O[C@H](O[C@H]2[C@H](O)[C@@H](O)[C@@H](O[C@H]3[C@H](O)[C@@H](O)C(O)O[C@@H]3CO)O[C@@H]2CO)[C@H](O)[C@@H](O)[C@@H]1N[C@H]1C=C(CO)[C@@H](O)[C@H](O)[C@H]1O (stereo partly specified) [ACARBOSE]

IC50 [3]: 25 µM
Compound: CCCCOc1ccc(-c2nc3ccc(Br)cc3[nH]2)cc1

IC50 [7]: 8 µM
Compound: COc1ccc(/C=N/NC(=O)c2ccc(-c3nc4cc(C)c(C)cc4[nH]3)cc2)c(O)c1

IC50 [8]: 0.7 µM | IC50 [9]: 1.2 µM
Compound: CC1(C)O[C@H]2Cc3c(O)cc(O)cc3O[C@@H]2c2cc(O)c(O)cc21

IC50 [10]: 6 µM
Compound: O=C1c2c(Cl)c(Cl)c(Cl)c(Cl)c2C(=O)N1CCc1ccccc1

Ki [11]: 0.004 µM
Compound: O[C@H]1[C@@H](O)Cn2cc(CCc3ccccc3)nc2[C@@H]1O

IC50 [10]: 7 µM
Compound: O=C1c2c(Cl)c(Cl)c(Cl)c(Cl)c2C(=O)N1CCCCCCc1ccccc1

IC50 [12]: 280 µM
Compound: CC(=O)NC[C@H]1N[C@H](CO)[C@@H](O)[C@@H]1O

IC50 [13]: 44 µM
Compound: COc1ccc(/C=C/C(=O)O)cc1 [4-METHOXYCINNAMIC ACID]

IC50 [10]: 11 µM
Compound: O=C1c2c(Cl)c(Cl)c(Cl)c(Cl)c2C(=O)N1Cc1ccccc1

IC50 [8]: 1.1 µM | IC50 [9]: 0.9 µM
Compound: CCCCCCC1(CCCCCC)O[C@H]2Cc3c(O)cc(O)cc3O[C@@H]2c2cc(O)c(O)cc21

IC50 [7]: 8 µM
Compound: Cc1cc2nc(-c3ccc(C(=O)N/N=C/c4cc(O)c(O)c(O)c4)cc3)[nH]c2cc1C

IC50 [14]: 45 µM
Compound: COc1ccc(O)c(-c2nc3cccc(C)c3[nH]2)c1

IC50 [15]: 2.6 µM
Compound: OC[C@H]1OC(O)[C@H](O)[C@@H](O)[C@@H]1O (stereo partly specified) [DEXTROSE]

IC50 [4]: 19 µM
Compound: Oc1cc(O)cc(/C=C/c2cc(O)c(O)c(O)c2)c1
Activity [16]: 12.1%

IC50 [3]: 38 µM
Compound: COc1ccc(-c2nc3ccc(Br)cc3[nH]2)c(O)c1

IC50 [7]: 12 µM
Compound: Cc1cc2nc(-c3ccc(C(=O)N/N=C/c4ccc(O)c(O)c4)cc3)[nH]c2cc1C

IC50 [7]: 8 µM
Compound: Cc1cc2nc(-c3ccc(C(=O)N/N=C/c4ccc(O)cc4O)cc3)[nH]c2cc1C

IC50 [5]: 5 µM
Compound: O=C1NC(=O)C(Cc2ccc(CNc3nc4ccccc4n3Cc3ccccc3)cc2)S1 (stereo unspecified)

IC50 [10]: 4.5 µM
Compound: O=C1c2c(Cl)c(Cl)c(Cl)c(Cl)c2C(=O)N1CCCc1ccccc1

IC50 [17]: 2490 µM | IC50 [18]: 1350 µM
Compound: Oc1cc(O)c2c(c1)O[C@H](c1ccc(O)c(O)c1)[C@@H](O)C2 [CIANIDANOL]

IC50 [1]: 40 µM
Compound: O=[N+]([O-])c1ccc2nc(Cc3ccc(Cl)cc3Cl)n(Cc3nnc(S)n3-c3ccccc3)c2c1

IC50 [14]: 45 µM
Compound: Cc1cccc2nc(-c3ccccc3[N+](=O)[O-])[nH]c12

IC50 [13]: 50 µM
Compound: CCOC(=O)/C=C/c1ccc(OC)cc1 [4-METHOXY ETHYL CINNAMATE]

IC50 [5]: 4 µM
Compound: O=C1NC(=O)C(Cc2ccc(Nc3nc4ccccc4n3Cc3ccccc3)cc2)S1 (stereo unspecified)

IC50 [7]: 8 µM
Compound: Cc1cc2nc(-c3ccc(C(=O)N/N=C/c4cccc(O)c4O)cc3)[nH]c2cc1C

IC50 [4]: 11 µM
Compound: COc1cc([C@@H]2c3c(O)cc(O)cc3[C@@H]3[C@H]2CO[C@H]3c2ccc(O)c(O)c2)cc(OC)c1O
Activity [16]: 10.2%

IC50 [1]: 27 µM
Compound: O=[N+]([O-])c1ccc2nc(Cc3ccc(Cl)cc3Cl)n(Cc3nnc(S)o3)c2c1

Ki [11]: 0.001 µM
Compound: O[C@H]1[C@@H](O)Cn2ccnc2[C@@H]1O

Ki [19]: 0.00447 µM
Compound: CC(=O)NC[C@H]1N[C@@H](C)[C@@H](O)[C@@H](O)[C@@H]1O
